Results: patent US9840532B2, “5′-substituted nucleoside compounds” (Eli Lilly and Company, priority 2015, dated 2017)

What follows are molecules tested against T1, PRMT5/MEP50 complex (Homo sapiens, UniProt O14744) (assay: PRMT5/MEP50 SPA Assay). Details: Mean ± SEM.
T1 construct: FLAG; made in house; host or cells: baculovirus/Sf9 insect cells
Assay type: biochemical
Text: The purpose of this assay is to measure the ability of a test compound to inhibit the enzyme activity of PRMT5 in vitro by inhibiting the catalytic activity of PRMT5/MEP50 complex, indicated by the transfer of radiolabeled methyl-^3H to a substrate peptide derived from the N-terminal sequence of the human histone H4.
Express the PRMT5/MEP50 enzyme complex using a baculovirus/Sf9 system and purify using anti-FLAG affinity chromatography, (essentially as described in preparations by Stephen Antonysamy, Zahid Bonday, Robert M. Campbell, Brandon Doyle, Zhanna Druzina, Tarun Gheyi, Bomie Han, Louis N. Jungheim, Yuewei Qian, Charles Rauch, Marijane Russell, J. Michael Sauder, Stephen R. Wasserman, Kenneth Weichert, Francis S. Willard, Aiping Zhang, and Spencer Emtage; Crystal structure of the human PRMT5:MEP50 complex, Proceedings of the National Academy of Sciences, 2012, Volume 109, pages 17960-17965.) Dilute purified enzyme to a working stock of 6.67 nM in assay buffer (50 mM TRIZMA® preset pH ˜8.5, 1 mM DTT, 0.005% TWEEN® 80 0.01% HSA).
Add enzyme (15 μL/well) to a 384-well assay plate (CORNING® cat. #3706). Add test compounds from a 10 mM DMSO stock solution to the plate as serial dilutions in assay buffer to achieve a final test concentrations ranging from 50.0 μM to 25 nM. Create a reaction mix containing 1 μM Histone H4 biotinylated peptide substrate, H-[…]-biotin (SEQ ID NO: 1), prepared by FastMoc chemistry with an ABI 431 peptide, and 4 μM ^3H-SAM; 15 Ci/mmol, 0.366 mCi/mL, 37 μM, PERKIN-ELMER® cat. # NET155000MC) in assay buffer. To each plate well, add 5 μL of the peptide/^3H-SAM reaction mix to yield final assay conditions of 5 nM enzyme, 1 ^3H-SAM, 250 nM peptide and 50 μM maximum test compound concentration with 0.5% DMSO, at a final volume of 20 μL. Incubate the assay for 2 hr at room temperature. Stop the reaction with the addition of guanidine HCl (5 M, 20 μL, Sigma cat. # G3272).
Suspend strepavidin YSI SPA scintillation beads (PERKIN-ELMER®, #RPNQ0012) at 1 mg/mL in pH ˜8.5 Tris buffer containing 5 M guanidine HCl. To each well, add 20 μL of this bead suspension, agitate the resulting mixtures, and incubate for 1 hr at room temperature prior to measuring their radioactivity, using a microplate liquid scintillation counter as an indication of the formation of methylated peptide product.
Generate raw data from the radioactivity measurement as counts per min (CPM). Employ an uninhibited control (DMSO) and maximum inhibited control (250 μM dehydrosinefungin, (isolated essentially as described in Berry, D. R. & Abbott, B. J. Incorporation of carbon-14-labeled compounds into sinefungin (A9145), a nucleoside antifungal antibiotic. J. Antibiot. 1978 (31) 185-191 and references cited therein)). […]

T1 sequence (O14744 whole entry): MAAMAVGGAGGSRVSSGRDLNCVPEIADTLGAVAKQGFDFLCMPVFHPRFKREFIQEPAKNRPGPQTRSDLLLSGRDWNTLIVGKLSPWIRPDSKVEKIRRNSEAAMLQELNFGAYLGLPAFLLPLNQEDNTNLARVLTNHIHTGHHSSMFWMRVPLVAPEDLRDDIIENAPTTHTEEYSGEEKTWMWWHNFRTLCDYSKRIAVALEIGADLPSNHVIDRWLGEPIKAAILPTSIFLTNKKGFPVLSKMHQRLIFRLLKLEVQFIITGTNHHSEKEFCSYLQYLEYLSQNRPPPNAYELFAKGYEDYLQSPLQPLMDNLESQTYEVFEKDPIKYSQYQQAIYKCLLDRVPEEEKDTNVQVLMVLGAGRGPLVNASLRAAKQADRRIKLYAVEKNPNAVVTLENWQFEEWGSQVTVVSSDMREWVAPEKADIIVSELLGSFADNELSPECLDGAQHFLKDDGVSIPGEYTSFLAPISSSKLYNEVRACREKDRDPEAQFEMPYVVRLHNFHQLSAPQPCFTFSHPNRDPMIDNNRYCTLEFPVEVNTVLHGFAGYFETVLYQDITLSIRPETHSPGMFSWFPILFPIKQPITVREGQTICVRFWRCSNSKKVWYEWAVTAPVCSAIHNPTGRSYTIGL
T1 sequence (Q9BQA1 whole entry partner): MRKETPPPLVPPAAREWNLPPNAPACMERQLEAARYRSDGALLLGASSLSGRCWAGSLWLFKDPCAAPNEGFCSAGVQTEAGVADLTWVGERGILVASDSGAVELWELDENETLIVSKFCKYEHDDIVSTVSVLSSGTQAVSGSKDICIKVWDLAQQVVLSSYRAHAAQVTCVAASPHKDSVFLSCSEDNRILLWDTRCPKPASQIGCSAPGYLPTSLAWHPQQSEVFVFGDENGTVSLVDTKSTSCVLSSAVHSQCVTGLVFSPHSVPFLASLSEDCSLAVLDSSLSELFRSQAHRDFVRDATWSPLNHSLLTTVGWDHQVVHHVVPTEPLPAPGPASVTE

| SMILES | IC50 [nM] |
| --- | --- |
| Nc1ncnc2c1ccn2[C@@H]1O[C@H]([C@H](O)c2ccc(Cl)cc2)[C@@H](O)[C@H]1O [Example 1, (2R,3R,4S,5R)-2-(4-Aminopyrrolo[2,3-d]pyrimidin-7-yl)-5-[(R)-(4-chlorophenyl)-hydroxy-methyl]tetrahydrofuran-3,4-diol] | 4.27 |
| Nc1ncnc2c1ccn2[C@@H]1O[C@H]([C@H](O)c2ccccc2)[C@@H](O)[C@H]1O [Example 2, (2R,3R,4S,5R)-2-(4-Aminopyrrolo[2,3-d]pyrimidin-7-yl)-5[(R)-hydroxy(phenyl)methyl]tetrahydrofuran-3,4-diol] | 9.51 |
| C[C@@](O)(c1ccc(Cl)cc1)[C@H]1O[C@@H](n2ccc3c(N)ncnc32)[C@H](O)[C@@H]1O [Example 3, (2R,3R,4S,5S)-2-(4-Aminopyrrolo[2,3-d]pyrimidin-7-yl)-5-[(1R)-1-(4-chlorophenyl)-1-hydroxy-ethyl]tetrahydrofuran-3,4-diol] | 5.23 |
